Several values for one entry are separate records, joined by “and”; a condition that tells them apart may be missing. Identical values can stand only once. Toxic doses and inconclusive results are not listed. Rule as the data show it: active = T/C of 150% or more; inactive = T/C below 125%.
Tested on: L1210 leukemia ip in BDF1 mice, survival T/C
Assay: NCI In Vivo Anticancer Drug Screen. Data for tumor model L1210 Leukemia (intraperitoneal) in B6D2F1 (BDF1) mice
Conditions: endpoint: mean survival time, higher = longer survival
Procedure, shortened: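 Tumor cells were implanted, animals were treated, and survival was followed. The result divides the treated measurement by the vehicle-control measurement.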

[1] = dose: 200.0 mg/kg/injection, schedule: Q01DX001 (ip), vehicle: carboxymethylcellulose (CMC)
[2] = dose: 100.0 mg/kg/injection, schedule: Q04DX003 (ip), vehicle: saline with Tween-80
[3] = dose: 200.0 mg/kg/injection, schedule: Q04DX003 (ip), vehicle: saline with Tween-80
[4] = dose: 400.0 mg/kg/injection, schedule: Q04DX003 (ip), vehicle: saline with Tween-80
[5] = dose: 100.0 mg/kg/injection, schedule: Q01DX001 (ip), vehicle: saline
[6] = dose: 200.0 mg/kg/injection, schedule: Q01DX001 (ip), vehicle: saline
[7] = dose: 100.0 mg/kg/injection, schedule: Q01DX001 (ip), vehicle: Klucel (hydroxypropylcellulose) (HPC)
[8] = dose: 200.0 mg/kg/injection, schedule: Q01DX001 (ip), vehicle: Klucel (hydroxypropylcellulose) (HPC)
[9] = dose: 100.0 mg/kg/injection, schedule: Q04DX002 (ip), vehicle: Klucel (hydroxypropylcellulose) (HPC)
[10] = dose: 200.0 mg/kg/injection, schedule: Q04DX002 (ip), vehicle: Klucel (hydroxypropylcellulose) (HPC)
[11] = dose: 400.0 mg/kg/injection, schedule: Q04DX002 (ip), vehicle: Klucel (hydroxypropylcellulose) (HPC)
[12] = dose: 100.0 mg/kg/injection, schedule: Q01DX009 (ip), vehicle: saline
[13] = dose: 100.0 mg/kg/injection, schedule: Q04DX003 (ip), vehicle: saline
[14] = dose: 200.0 mg/kg/injection, schedule: Q01DX009 (ip), vehicle: saline
[15] = dose: 200.0 mg/kg/injection, schedule: Q04DX003 (ip), vehicle: saline
[16] = dose: 50.0 mg/kg/injection, schedule: Q01DX009 (ip), vehicle: Klucel (hydroxypropylcellulose) (HPC)
[17] = dose: 100.0 mg/kg/injection, schedule: Q01DX009 (ip), vehicle: Klucel (hydroxypropylcellulose) (HPC)
[18] = dose: 400.0 mg/kg/injection, schedule: Q01DX001 (ip), vehicle: Klucel (hydroxypropylcellulose) (HPC)
[19] = dose: 200.0 mg/kg/injection, schedule: Q01DX009 (ip), vehicle: Klucel (hydroxypropylcellulose) (HPC)

Measured: T/C

CC(C)(C#N)C(C)(C)C#N
inactive: dose: 1.56 mg/kg/injection, schedule: Q04DX003 (ip), vehicle: saline with Tween-80 103 % of control | dose: 3.13 mg/kg/injection, schedule: Q04DX003 (ip), vehicle: saline with Tween-80 92 % of control | dose: 6.25 mg/kg/injection, schedule: Q04DX003 (ip), vehicle: saline with Tween-80 93 % of control and 92 % of control

CC(C#N)NCc1ccc2c(c1)OCO2 (configuration not stated)
inactive: dose: 50.0 mg/kg/injection, schedule: Q01DX001 (ip), vehicle: carboxymethylcellulose (CMC) 112 % of control | [1] 96 % of control

O=P(CCCl)(OCCCl)OCCCl
inactive: [2] 94 % of control | [3] 109 % of control | [4] 109 % of control

Cc1cc(N(C)C)cc(C)c1C(=Nc1ccc(N=C(NO)c2c(C)cc(N(C)C)cc2C)cc1)NO
inactive: [5] 97 % of control | [6] 109 % of control

Cc1ccc(S(=O)(=O)NCC(=O)NCC(=O)Oc2c(Cl)c(Cl)c(Cl)c(Cl)c2Cl)cc1
inactive: dose: 100.0 mg/kg/injection, schedule: Q01DX001 (ip), vehicle: water 95 % of control | dose: 200.0 mg/kg/injection, schedule: Q01DX001 (ip), vehicle: water 96 % of control | dose: 400.0 mg/kg/injection, schedule: Q01DX001 (ip), vehicle: water 95 % of control

CC1(c2cccs2)NC(=O)NC1=O (configuration not stated)
inactive: dose: 100.0 mg/kg/injection, schedule: Q01DX001 (ip), vehicle: carboxymethylcellulose (CMC) 95 % of control | dose: 100.0 mg/kg/injection, schedule: Q01DX009 (ip), vehicle: saline with Tween-80 102 % of control | [2] 105 % of control and 96 % of control | [1] 101 % of control | dose: 200.0 mg/kg/injection, schedule: Q01DX009 (ip), vehicle: saline with Tween-80 110 % of control | [3] 109 % of control and 96 % of control | dose: 400.0 mg/kg/injection, schedule: Q01DX001 (ip), vehicle: carboxymethylcellulose (CMC) 97 % of control | dose: 400.0 mg/kg/injection, schedule: Q01DX009 (ip), vehicle: saline with Tween-80 109 % of control | [4] 107 % of control and 105 % of control

COc1c(C(C)(C)C)cc(/C=C(\NC(=O)c2ccccc2)C(=O)O)cc1C(C)(C)C
inactive: [7] 98 % of control | [8] 92 % of control

CC(=O)OC1C(C)C2C=CC(=O)C2(C)CC2C1OC(=O)C2(O)CO (configuration not stated)
inactive: dose: 25.0 mg/kg/injection, schedule: Q04DX002 (ip), vehicle: saline 116 % of control | dose: 50.0 mg/kg/injection, schedule: Q04DX002 (ip), vehicle: saline 113 % of control | dose: 100.0 mg/kg/injection, schedule: Q04DX002 (ip), vehicle: saline 95 % of control

CC(C)(S)C(N)C(N)=O (configuration not stated)
inactive: [9] 103 % of control | [10] 97 % of control | [11] 97 % of control

CC(=O)C(N)CCC(=O)O (configuration not stated)
inactive: [12] 106 % of control | [13] 97 % of control | [14] 101 % of control | [15] 97 % of control | dose: 400.0 mg/kg/injection, schedule: Q01DX009 (ip), vehicle: saline 95 % of control | dose: 400.0 mg/kg/injection, schedule: Q04DX003 (ip), vehicle: saline 94 % of control

CC(=O)OC1CCC2(C)C3=C(CCC2C1(C)C)C1(C)CCC(C(C)CCC=C(C)C)C1(C)CC3 (configuration not stated)
inactive: [16] 102 % of control | [17] 94 % of control

O=C(Cl)C12CC3CC(CC(C3)C1)C2
inactive: [9] 111 % of control | [10] 111 % of control | [11] 100 % of control

CC(=O)OCC1C(C)CCC1C(C)(C)OC(C)=O (configuration not stated)
inactive: dose: 25.0 mg/kg/injection, schedule: Q04DX003 (ip), vehicle: saline 95 % of control | dose: 50.0 mg/kg/injection, schedule: Q04DX003 (ip), vehicle: saline 109 % of control | [5] 107 % of control | [13] 98 % of control

CC1(C(N)=O)CCCC2(C)c3ccccc3CCC12 (configuration not stated)
inactive: [2] 92 % of control | [3] 95 % of control | [4] 94 % of control

Cc1cc(=O)[nH]c(=S)[nH]1
inactive: [7] 90 % of control | [8] 101 % of control | [18] 92 % of control

CN(C)c1ccc(C=NCCCNC2CCCCC2)cc1
inactive: dose: 25.0 mg/kg/injection, schedule: Q04DX003 (ip), vehicle: other 94 % of control | dose: 50.0 mg/kg/injection, schedule: Q04DX003 (ip), vehicle: other 102 % of control | [5] 88 % of control

CC(C)CNC(=O)CCCc1ccc(N(CCCl)CCCl)cc1
inactive: dose: 4.0 mg/kg/injection, schedule: Q12HX018 (ip), vehicle: other 110 % of control | dose: 6.0 mg/kg/injection, schedule: Q12HX018 (ip), vehicle: other 95 % of control | dose: 8.0 mg/kg/injection, schedule: Q12HX018 (ip), vehicle: other 112 % of control

CN(CCc1ccccc1)/N=N/c1[nH]ncc1C(N)=O
inactive: [7] 108 % of control | [17] 103 % of control | dose: 100.0 mg/kg/injection, schedule: Q04DX003 (ip), vehicle: Klucel (hydroxypropylcellulose) (HPC) 105 % of control | [8] 105 % of control | [19] 106 % of control | dose: 200.0 mg/kg/injection, schedule: Q04DX003 (ip), vehicle: Klucel (hydroxypropylcellulose) (HPC) 97 % of control | [18] 113 % of control | dose: 400.0 mg/kg/injection, schedule: Q04DX003 (ip), vehicle: Klucel (hydroxypropylcellulose) (HPC) 100 % of control | dose: 600.0 mg/kg/injection, schedule: Q01DX009 (ip), vehicle: Klucel (hydroxypropylcellulose) (HPC) 105 % of control

CC12C3CCC(C3)C1(O)C2S(=O)(=O)N1CCCCC1 (configuration not stated)
inactive: [12] 110 % of control | [14] 104 % of control

Cn1c2c(c(=O)n(C)c1=O)CC(=O)N2
inactive: [16] 100 % of control | [17] 103 % of control

O=C(CCl)NCCCCCNC(=O)CCl
inactive: [17] 104 % of control | [19] 105 % of control

O=[N+]([O-])/C=C\C(Cl)(Cl)Cl
inactive: dose: 6.25 mg/kg/injection, schedule: Q01DX009 (ip), vehicle: saline with Tween-80 96 % of control | dose: 12.5 mg/kg/injection, schedule: Q01DX009 (ip), vehicle: saline with Tween-80 87 % of control

CCCc1nc2ccccc2[nH]1
inactive: [2] 96 % of control | [3] 100 % of control

O=C1c2cccc3cc([N+](=O)[O-])cc(c23)C(=O)N1CC1CCCO1 (configuration not stated)
inactive: dose: 100.0 mg/kg/injection, schedule: Q04DX003 (ip), vehicle: carboxymethylcellulose (CMC) 94 % of control | dose: 200.0 mg/kg/injection, schedule: Q04DX003 (ip), vehicle: carboxymethylcellulose (CMC) 96 % of control | dose: 400.0 mg/kg/injection, schedule: Q04DX003 (ip), vehicle: carboxymethylcellulose (CMC) 107 % of control

CO/C=C(\C)C(=O)NC(=O)NC1CCC(CO)C1 (configuration not stated)
inactive: dose: 100.0 mg/kg/injection, schedule: Q01DX001 (ip), vehicle: other 96 % of control | dose: 200.0 mg/kg/injection, schedule: Q01DX001 (ip), vehicle: other 107 % of control | dose: 400.0 mg/kg/injection, schedule: Q01DX001 (ip), vehicle: other 98 % of control

NNc1nncn1N
inactive: dose: 50.0 mg/kg/injection, schedule: Q01DX009 (ip), vehicle: saline 101 % of control | [12] 102 % of control | [13] 97 % of control | [14] 103 % of control | [15] 94 % of control

Clc1ccc(OCc2sc3ccc(Cl)cc3c2CN2CCOCC2)cc1
inactive: [2] 91 % of control | [3] 90 % of control | [4] 91 % of control

C[n+]1cccc2cc(NC(=O)c3ccc(C(=O)Nc4ccc5c(ccc[n+]5C)c4)cc3)ccc21
inactive: dose: 0.94 mg/kg/injection, schedule: Q01DX Z (ip), vehicle: saline 94 % of control | dose: 1.88 mg/kg/injection, schedule: Q01DX Z (ip), vehicle: saline 92 % of control | dose: 30.0 mg/kg/injection, schedule: Q01DX010 (oral), vehicle: saline 100 % of control | dose: 240.0 mg/kg/injection, schedule: Q01DX010 (oral), vehicle: saline 100 % of control

COC(=O)C1OC1c1cc(Cl)ccc1OC (configuration not stated)
inactive: [5] 102 % of control | [6] 94 % of control | dose: 400.0 mg/kg/injection, schedule: Q01DX001 (ip), vehicle: saline 94 % of control

Reference: PubChem BioAssay AID248 (DTP/NCI, 2004)
